melting point	SMILES
182 to 185 °C	O=C(c1ccccn1)c1sc(NC(=O)N2CCCCC2)nc1-c1ccco1 [Compound 165, N-[4-(2-Furyl)-5-(pyridin-2-ylcarbonyl)thiazol-2-yl]piperidine-1-carboxamide]
229 to 231 °C	O=C(Nc1nc(-c2ccco2)c(C(=O)C2CCOCC2)s1)c1cccc(F)c1 [Compound 372, 3-Fluoro-N-[4-(2-furyl)-5-(tetrahydropyran-4-ylcarbonyl)-thiazol-2-yl]benzamide]
270 to 273 °C	O=C(Nc1nc(-c2ccco2)c(C(=O)c2ccnc(N3CCOCC3)c2)s1)c1ccncc1 [Compound 246, N-[4-(2-Furyl)-5-(2-morpholinopyridin-4-ylcarbonyl)thiazol-2-yl]pyridine-4-carboxamide]
206 to 212 °C	O=C1CCC(C(=O)c2sc(NC(=O)c3ccncc3)nc2-c2ccco2)CC1 [Compound 353, N-[4-(2-Furyl)-5-(4-oxocyclohexylcarbonyl)thiazol-2-yl]-pyridine-4-carboxamide]
172 to 176 °C	O=C(Nc1nc(-c2ccco2)c(C(=O)C2CCOCC2)s1)c1ccccc1F [Compound 371, 2-Fluoro-N-[4-(2-furyl)-5-(tetrahydropyran-4-ylcarbonyl)-thiazol-2-yl]benzamide]
206 to 207 °C	O=C(Nc1nc(-c2ccco2)c(C(=O)c2ccccn2)s1)c1ccncc1Cl [Compound 123, 3-Chloro-N-[4-(2-furyl)-5-(pyridin-2-ylcarbonyl)thiazol-2-yl]pyridine-4-carboxamide]
144 to 145 °C	O=C(c1ccccn1)c1sc(NC(=O)N2CCOCC2)nc1-c1ccco1 [Compound 164, N-[4-(2-Furyl)-5-(pyridin-2-ylcarbonyl)thiazol-2-yl]morpholine-4-carboxamide]
107 to 110 °C	COc1ccc(OC)c(C(=O)Nc2nc(-c3ccco3)c(C(=O)C3CCOCC3)s2)c1 [Compound 390, N-[4-(2-Furyl)-5-(tetrahydropyran-4-ylcarbonyl)thiazol-2-yl]-2,5-dimethoxybenzamide]
115 to 117 °C	O=C(c1sc(NC(=O)C2CCCO2)nc1-c1ccco1)C1CCOCC1 (stereo not drawn) [Compound 428, N-[4-(2-Furyl)-5-(tetrahydropyran-4-ylcarbonyl)thiazol-2-yl]tetrahydrofuran-2-carboxamide]
149 to 150 °C	O=C(CN1CCC(N2CCOCC2)CC1)Nc1nc(-c2ccco2)c(C(=O)c2ccccn2)s1 [Compound 179, N-[4-(2-Furyl)-5-(pyridin-2-ylcarbonyl)thiazol-2-yl]-2-(4-morpholinopiperidino)acetamide]
289 to 292 °C	COc1ccc(C(=O)Nc2nc(-c3ccco3)c(C(=O)C3CCOCC3)s2)cc1OC [Compound 392, N-[4-(2-Furyl)-5-(tetrahydropyran-4-ylcarbonyl)thiazol-2-yl]-3,4-dimethoxybenzamide]
152 to 156 °C	COc1cccc(OC)c1C(=O)Nc1nc(-c2ccco2)c(C(=O)C2CCOCC2)s1 [Compound 391, N-[4-(2-Furyl)-5-(tetrahydropyran-4-ylcarbonyl)thiazol-2-yl]-2,6-dimethoxybenzamide]
102 to 103 °C	COC[C@@H]1CCCN1CC(=O)Nc1nc(-c2ccco2)c(C(=O)C2CCOCC2)s1 [Compound 443, N-[4-(2-Furyl)-5-(tetrahydropyran-4-ylcarbonyl)thiazol-2-yl]-2-[(2S)-2-(methoxymethyl)pyrrolidin-1-yl]acetamide]
164 to 166 °C	O=C(Nc1nc(-c2ccco2)c(C(=O)C2CCOCC2)s1)C1CCOC1 (stereo not drawn) [Compound 429, N-[4-(2-Furyl)-5-(tetrahydropyran-4-ylcarbonyl)thiazol-2-yl]tetrahydrofuran-3-carboxamide]
239 to 243 °C	Cc1cncc(C(=O)Nc2nc(-c3ccco3)c(C(=O)C3CCOCC3)s2)c1 [Compound 411, N-[4-(2-Furyl)-5-(tetrahydropyran-4-ylcarbonyl)thiazol-2-yl]-5-methylpyridine-3-carboxamide]
252 to 259 °C (dec.)	CC(=O)c1sc(NC(=O)c2ccncc2)nc1-c1ccco1 [Compound 284, N-[5-Acetyl-4-(2-furyl)thiazol-2-yl]pyridine-4-carboxamide]
180 to 187 °C	COC1CCC(C(=O)c2sc(NC(=O)c3ccncc3)nc2-c2ccco2)CC1 (stereo not drawn) [Compound 347, N-[4-(2-Furyl)-5-(4-methoxycyclohexylcarbonyl)thiazol-2-yl]pyridine-4-carboxamide]
208 to 210 °C	O=C(Nc1nc(-c2ccco2)c(C(=O)C2CCOCC2)s1)c1ccc(F)c(F)c1 [Compound 398, 3,4-Difluoro-N-[4-(2-furyl)-5-(tetrahydropyran-4-ylcarbonyl)thiazol-2-yl]benzamide]
106 to 108 °C	CC(C)(O)CN1CCN(CC(=O)Nc2nc(-c3ccco3)c(C(=O)C3CCOCC3)s2)CC1 [Compound 470, N-[4-(2-Furyl)-5-(tetrahydropyran-4-ylcarbonyl)thiazol-2-yl]-2-[4-(2-hydroxy-2-methylpropyl)piperazin-1-yl]acetamide]
208 to 209 °C	O=C(c1ccccn1)c1sc(NC(=O)C2CCN(Cc3cccnc3)CC2)nc1-c1ccco1 [Compound 105, N-[4-(2-Furyl)-5-(pyridin-2-ylcarbonyl)thiazol-2-yl]-1-(pyridin-3-ylmethyl)piperidine-4-carboxamide]
220 to 232 °C (dec.)	COC1CCN(CC(=O)Nc2nc(-c3ccco3)c(C(=O)c3ccccn3)s2)CC1.Cl

The next lines start with the compound.

SMILES	melting point
Cn1cc(C(=O)c2sc(NC(=O)c3ccncc3)nc2-c2ccco2)ccc1=O [Compound 267, N-[4-(2-Furyl)-5-(1-methyl-2-oxo-1,2-dihydropyridin-5-ylcarbonyl)thiazol-2-yl]pyridine-4-carboxamide]	294 to 295 °C
CCn1ccc(C(=O)c2sc(NC(=O)c3ccncc3)nc2-c2ccco2)cc1=O [Compound 276, N-[5-(1-Ethyl-2-oxo-1,2-dihydropyridin-4-ylcarbonyl)-4-(2-furyl)thiazol-2-yl]pyridine-4-carboxamide]	277 to 281 °C
CC(C)C(=O)c1sc(NC(=O)c2ccncc2)nc1-c1ccco1 [Compound 300, N-[4-(2-Furyl)-5-isobutyrylthiazol-2-yl]pyridine-4-carboxamide]	179 to 182 °C
O=C(Nc1nc(-c2ccco2)c(C(=O)c2cc[nH]c2)s1)c1ccncc1 [Compound 260, N-[4-(2-Furyl)-5-(pyrrol-3-ylcarbonyl)thiazol-2-yl]pyridine-4-carboxamide]	259 to 260 °C
CC(C)NC(=O)Nc1nc(-c2ccco2)c(C(=O)c2ccccn2)s1 [Compound 166, N-[4-(2-Furyl)-5-(pyridin-2-ylcarbonyl)thiazol-2-yl]-N′-isopropylurea]	182 to 186 °C
COc1cccc(C(=O)c2sc(NC(=O)c3ccncc3)nc2-c2ccco2)n1 [Compound 191, N-[4-(2-Furyl)-5-(6-methoxypyridin-2-ylcarbonyl)thiazol-2-yl]pyridine-4-carboxamide]	247 to 250 °C
COCCCNC(=O)Nc1nc(-c2ccco2)c(C(=O)c2ccccn2)s1 [Compound 169, N-[4-(2-Furyl)-5-(pyridin-2-ylcarbonyl)thiazol-2-yl]-N′-(3-methoxypropyl)urea]	169 to 170 °C
Cc1ccc(C(=O)c2sc(NC(=O)c3ccncc3)nc2-c2ccco2)cn1 [Compound 220, N-[4-(2-Furyl)-5-(2-methylpyridin-5-ylcarbonyl)thiazol-2-yl]pyridine-4-carboxamide]	230 to 232 °C (dec.)
Cc1ncccc1C(=O)c1sc(NC(=O)c2ccncc2)nc1-c1ccco1 [Compound 217, N-[4-(2-Furyl)-5-(2-methylpyridin-3-ylcarbonyl)thiazol-2-yl]pyridine-4-carboxamide]	230 to 234 °C
O=C(Nc1nc(-c2ccco2)c(C(=O)c2ccccc2)s1)c1ccc(=O)n(Cc2ccncc2)c1 [Compound 60, N-[5-Benzoyl-4-(2-furyl)thiazol-2-yl]-2-oxo-1-(pyridin-4-ylmethyl)-1,2-dihydropyridine-5-carboxamide]	270 to 275 °C
O=C(Nc1nc(-c2ccco2)c(C(=O)c2ccccn2)s1)c1cc[nH]c(=O)c1 [Compound 139, N-[4-(2-Furyl)-5-(pyridin-2-ylcarbonyl)thiazol-2-yl]-2-oxo-1,2-dihydropyridine-4-carboxamide]	170 to 180 °C (dec.)
COc1ccc(C(=O)Nc2nc(-c3ccco3)c(C(=O)c3ccccn3)s2)cc1 [Compound 110, N-[4-(2-Furyl)-5-(pyridin-2-ylcarbonyl)thiazol-2-yl]-4-methoxybenzamide]	187 to 188 °C
COCC#CC(=O)c1sc(NC(=O)c2ccncc2)nc1-c1ccco1 [Compound 319, N-[4-(2-Furyl)-5-(3-methoxyprop-1-ynylcarbonyl)thiazol-2-yl]pyridine-4-carboxamide]	198 to 200 °C
Cc1csc(C(=O)c2sc(NC(=O)c3ccncc3)nc2-c2ccco2)n1 [Compound 257, N-[4-(2-Furyl)-5-(4-methylthiazol-2-ylcarbonyl)thiazol-2-yl]pyridine-4-carboxamide]	250 to 255 °C
CC(=O)c1cccc(C(=O)Nc2nc(-c3ccco3)c(C(=O)c3ccccn3)s2)c1 [Compound 115, 3-Acetyl-N-[4-(2-furyl)-5-(pyridin-2-ylcarbonyl)thiazol-2-yl]benzamide]	168 to 169 °C
CCn1ccc(C(=O)c2sc(NC(=O)c3ccncc3)nc2-c2ccco2)c1 [Compound 262, N-[5-(1-Ethylpyrrol-3-ylcarbonyl)-4-(2-furyl)thiazol-2-yl]pyridine-4-carboxamide]	127 to 134 °C
Nc1nc(-c2ccco2)c(C(=O)C2CCC2)s1 [Compound 329, 2-Amino-4-(2-furyl)thiazol-5-yl cyclobutyl ketone]	125 to 160 °C (dec.)
Cc1cc(C(=O)c2sc(NC(=O)c3ccncc3)nc2-c2ccco2)ccn1 [Compound 239, N-[4-(2-Furyl)-5-(2-methylpyridin-4-ylcarbonyl)thiazol-2-yl]pyridine-4-carboxamide]	223 to 225 °C

Source: patent US7928098B2, “Therapeutic and/or preventive agents for a sleep disorder” (Kyowa Hakko Kirin Co., Ltd., priority 2005, dated 2011)
